The results in this text go back to patent publication US6391902B1, “Substituted benzofuranoindoles and indenoindoles as novel potassium channel openers” (American Home Products Corporation, priority 1998, dated 2002).

The test system of one series is Bladder Tissue. Nature of the series: Relaxation of KCl-stimulated isolated rat bladder strips (contractile activity). Also noted: species or system Sprague-Dawley rats. The conditions noted are these: Rattus norvegicus, 0.5 h. The procedure:
Sprague-Dawley rats (150-200 g) are rendered unconscious by CO2 asphyxiation and then euthanized by cervical dislocation. The bladder is removed into warm (37° C.) physiological salt solution (PSS) of the following composition (mM): NaCl, 118.4; KCl, 4.7; CaCl2, 2.5; […]; NaHCO3, 24.9; KH2PO4, 1.2; glucose, 11.1; EDTA, 0.023; gassed with 95% O2; […]; pH 7.4. The bladder is opened and then cut into strips 1-2 mm in width and 7-10 mm in length. The strips are subsequently suspended in a 10 mL tissue bath under an initial resting tension of 1.5 g. The strips are held in place by two surgical clips one of which is attached to a fixed hook while the other is attached to an isometric force transducer. […] The carbachol is then washed out and the tissue allowed to relax to its resting level of activity. Following a further 30 min period of recovery an additional 15 mM KCl re introduced into the tissue bath. […] Following stabilization of this enhanced level of contractile activity, incremental increases in the concentration of test compound or vehicle are introduced into the tissue bath. Contractile activity is measured for each compound or vehicle concentration during the last minute of a 30 minute challenge.

Another series relates to Aorta Tissue. Nature of the series: Relaxation of KCl-contracted isolated rat thoracic aortic rings (contractile force). Set-up: species or system Sprague-Dawley rats. The conditions noted are these: for IC50: Rattus norvegicus; for Ratio Aorta IC50 / Bladder IC50: aorta IC50 divided by bladder IC50, tissue selectivity. How it is done:
The smooth muscle (aorta) relaxing activity of the compounds of this ivention was established in accordance with standard pharmaceutically accepted test procedures with representative compounds as follows.
Male Sprague-Dawley rats (150-200 g) are rendered unconscious by CO2 asphyxiation and then euthanized by cervical dislocation. The thoracic aorta is removed into warm (37° C.) physiological sial solution (PSS) of the following composition (mM): NaCl, 118.4; KCl, 4.7; CaCl2, 2.5; MgSO4.7H2O, 1.2; NaHCO3, 24.9; KH2PO4, 1.2; glucose, 11.1; EDTA, 0.023; gassed with 95% O2/5% CO2; pH 7.4. The aorta is cleaned of fat and loose adventitia and cut into rings 3-4 mm in width. The rings are subsequently suspended between two stainless steel wire tissue holders in a 10 mL tissue bath. One wire tissue holder is attached to a fixed hook while the other is attached to an isometric force transducer. Resting tension is set at 1 g. The tissues are to recover for a period of 60 min prior to beginning the experiment. Tissues are challenged with PSS containing 25 mM KCl to elicit a contracture. The tissues are then washed repeatedly with fresh PSS over a period of 30 min and allowed to recover to baseline tension. PSS containing 30-35 mM KCl is then introduced into the tissue bath to evoke a contracture that is allowed to stabilize for not less than 45 min. (Other stimuli such as norepinephrine, PGF2a, histamine, angiotensin II, endothelin or PSS containing 80 mM KCl may also be used to evoke a contracture as necessary). Increasing concentrations of test compound or vehicle are then added to the tissue bath in a cumulative fashion.
Isometric force development by the aortic rings is measured using a force transducer and recorded on a polygraph. The percentage inhibition of contractile force evoked by each concentration of a given test compound is used to generate a concentration-response curve. […] [Log concentration versus response curves are approximately linear between 20% and 80% of the maximum response. As such, the IC50 concentration of the drug is determined by linear regression analysis (where x=log concentration and y=% inhibition) of the data points in the 20% to 80% region of the curve.] […] Data collected from 2 animals are averaged for primary screens.

Another series concerns whole rat bladder. Nature of the series: Relaxation of whole rat bladder ex-vivo (partial outlet obstruction, developed bladder pressure). Also noted: species or system Spraque-Dawley rats. The conditions noted are these: isolated whole bladder of rats 6 weeks after partial outlet obstruction, 30 minute challenge. How it is done: Several compound in this invention were tested for their ability to relax a whole rat bladder ex-vivo. The protocol for this assay is as follows.
Female Spraque-Dawley rats weighing between 200-300 g were anesthetized with Nembutol® (50 mg/kg, i.p.). After achieving adequate anesthesia, the bladder and urethra were exposed through a mid-line incision. A 4-0 silk ligature was tied around the proximal end of the urethra in the presence of a 1 mm diameter stainless steel rod. The rod was then removed resulting in a partial outlet obstruction. The wound was closed with surgical staples and the animals received 15,000 units of Bicillin® antibiotic. After a 6 week period the animals were asphyxiated with CO2 gas. Bladders for contractile analysis were placed in a physiological salt solution (PSS) at 37° C. of the following composition (in mM): NaCl (118.4), KCl (4.7), CaCl2 (2.5), MgSO4 (1.2), KH2PO4 (1.2), NaHCO3 (24.9) and D-glucose (11.1) gassed with […] to achieve a pH of 7.4.
The isolated bladders were secured through the urethral opening with a silk ligature to a length of polyethylene tubing (PE-200). […]
Following stabilization, incremental increases in the concentration of test compound or vehicle are introduced into the tissue bath. Contractile activity is measured for each compound or vehicle concentration during the last minute of a 30 minute challenge.

Each structure is given as a SMILES string.

As for `CC1(C)c2ccc([N+](=O)[O-])cc2-c2[nH]c3c(C(=O)O)cccc3c21` [Example 24, 10,10-Dimethyl-3-nitro-5,10-dihydro-indeno[1,2-b]indole-6-carboxylic acid], the melting point is 310 °C (dec.). For the same molecule, half-maximal inhibition in the series with Bladder Tissue (IC50) required 5.2 ± 1.8 µM. Also, in the series on Aorta Tissue, the IC50 was found to be 17.2 ± 2.3 µM and the “Ratio Aorta IC50 / Bladder IC50” value amounted to 3.3. Also, the IC50 in the series on whole rat bladder was 5 µM.
Consider `O=C(O)c1cccc2c1Cc1c-2[nH]c2ccc(Br)cc12` [Example 25, 8-Bromo-5,10-dihydro-indeno[1,2-b]indole-1-carboxylic acid], for which the melting point was 328 to 330 °C (dec.). In the series with Bladder Tissue, the IC50 worked out at 4.4 ± 0.95 µM. Also, in the series with Aorta Tissue, the IC50 amounted to 110 ± 12.4 µM and the “Ratio Aorta IC50 / Bladder IC50” value turned out to be 25.
